From the supplement of paper PMC10307832

Legend:
Assay in all cases: relative viability (nuclei count vs DMSO), 5 days (fraction); higher = more cells survive
[1] = system: BEN
In short: (§1)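 After 5 days of treatment, lung cancer cells in 1536-well plates were fixed and stained in a single step (final 0.05% Triton X-100, 1% formaldehyde, 1 ug/ml Hoechst) and their nuclei counted on 4× images. Treatment had been applied by pin tool the day after seeding as one drug alone or as a fixed anchor-drug dose with five library-drug doses (not always all listed) in √10 steps. Relative viability is the nuclei count of treated wells divided by that of vehicle wells, and values are medians of duplicate plates.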

[2] = system: LK-2
In short: as §1

[3] = system: ChaGo-K-1
In short: as §1

[4] = system: PC-3 [JPC-3]
In short: as §1

[5] = system: NCI-H1355
In short: as §1

[6] = system: NCI-H2342
In short: as §1

[7] = system: NCI-H2087
In short: as §1

[8] = system: NCI-H1651
In short: as §1

[9] = system: NCI-H838
In short: as §1

[10] = system: NCI-H661
In short: as §1

[11] = system: LC-2-ad
In short: as §1

[12] = system: SK-MES-1
In short: as §1

[13] = system: NCI-H1944
In short: as §1

[14] = system: HCC-78
In short: as §1

[15] = system: NCI-H650
In short: as §1

[16] = system: NCI-H1666
In short: as §1

[17] = system: LCLC-97TM1
In short: as §1

[18] = system: NCI-H1975
In short: as §1

[19] = system: LU99A
In short: as §1

[20] = system: LXF-289
In short: as §1

[21] = system: NCI-H358
In short: as §1

[22] = system: NCI-H596
In short: as §1

O=c1cc(N2CCOCC2)oc2c(-c3cccc4c3sc3ccccc34)cccc12 + N=C(N)NC(=N)NCCc1ccccc1 [Phenformin] (partner 250 µM)
relative viability ([1]; first compound 0.01 µM): 0.241 | relative viability ([1]; first compound 0.03162 µM): 0.305 | relative viability ([1]; first compound 0.1 µM): 0.27 | relative viability ([1]; first compound 0.3162 µM): 0.271 | relative viability ([1]; first compound 1 µM): 0.292 | relative viability ([2]; first compound 0.01 µM): 0.593 | relative viability ([2]; first compound 0.03162 µM): 0.404 | relative viability ([2]; first compound 0.1 µM): 0.573 | relative viability ([2]; first compound 0.3162 µM): 0.38 | relative viability ([2]; first compound 1 µM): 0.361 | relative viability ([3]; first compound 0.01 µM): 0.401 | relative viability ([3]; first compound 0.03162 µM): 0.579 | relative viability ([3]; first compound 0.1 µM): 0.386 | relative viability ([3]; first compound 0.3162 µM): 0.547 | relative viability ([3]; first compound 1 µM): 0.468 | relative viability ([4]; first compound 0.01 µM): 0.467 | relative viability ([4]; first compound 0.03162 µM): 0.476 | relative viability ([4]; first compound 0.1 µM): 0.441 | relative viability ([4]; first compound 0.3162 µM): 0.496 | relative viability ([4]; first compound 1 µM): 0.513 | relative viability ([5]; first compound 0.01 µM): 0.45 | relative viability ([5]; first compound 0.03162 µM): 0.446 | relative viability ([5]; first compound 0.1 µM): 0.316 | relative viability ([5]; first compound 0.3162 µM): 0.447 | relative viability ([5]; first compound 1 µM): 0.42 | relative viability ([6]; first compound 0.01 µM): 0.575 | relative viability ([6]; first compound 0.03162 µM): 0.59 | relative viability ([6]; first compound 0.1 µM): 0.601 | relative viability ([6]; first compound 0.3162 µM): 0.621 | relative viability ([6]; first compound 1 µM): 0.576 | relative viability ([7]; first compound 0.01 µM): 0.423 | relative viability ([7]; first compound 0.03162 µM): 0.535 | relative viability ([7]; first compound 0.1 µM): 0.45 | relative viability ([7]; first compound 0.3162 µM): 0.46 | relative viability ([7]; first compound 1 µM): 0.431 | relative viability ([8]; first compound 0.01 µM): 0.315 | relative viability ([8]; first compound 0.03162 µM): 0.366 | relative viability ([8]; first compound 0.1 µM): 0.352 | relative viability ([8]; first compound 0.3162 µM): 0.345 | relative viability ([8]; first compound 1 µM): 0.333 | relative viability ([9]; first compound 0.01 µM): 0.473 | relative viability ([9]; first compound 0.03162 µM): 0.547 | relative viability ([9]; first compound 0.1 µM): 0.534 | relative viability ([9]; first compound 0.3162 µM): 0.6 | relative viability ([9]; first compound 1 µM): 0.543 | relative viability ([10]; first compound 0.01 µM): 0.291 | relative viability ([10]; first compound 0.03162 µM): 0.278 | relative viability ([10]; first compound 0.1 µM): 0.28 | relative viability ([10]; first compound 0.3162 µM): 0.269 | relative viability ([10]; first compound 1 µM): 0.285 | relative viability ([11]; first compound 0.01 µM): 0.624 | relative viability ([11]; first compound 0.03162 µM): 0.592 | relative viability ([11]; first compound 0.1 µM): 0.614 | relative viability ([11]; first compound 0.3162 µM): 0.547 | relative viability ([11]; first compound 1 µM): 0.534 | relative viability ([12]; first compound 0.01 µM): 0.652 | relative viability ([12]; first compound 0.03162 µM): 0.688 | relative viability ([12]; first compound 0.1 µM): 0.688 | relative viability ([12]; first compound 0.3162 µM): 0.671 | relative viability ([12]; first compound 1 µM): 0.668 | relative viability ([13]; first compound 0.01 µM): 0.212 | relative viability ([13]; first compound 0.03162 µM): 0.208 | relative viability ([13]; first compound 0.1 µM): 0.213 | relative viability ([13]; first compound 0.3162 µM): 0.207 | relative viability ([13]; first compound 1 µM): 0.237 | relative viability ([14]; first compound 0.01 µM): 0.738 | relative viability ([14]; first compound 0.03162 µM): 0.652 | relative viability ([14]; first compound 0.1 µM): 0.388 | relative viability ([14]; first compound 0.3162 µM): 0.622 | relative viability ([14]; first compound 1 µM): 0.627 | relative viability ([15]; first compound 0.03162 µM): 0.484 | relative viability ([15]; first compound 0.1 µM): 0.302 | relative viability ([15]; first compound 0.3162 µM): 0.511 | relative viability ([15]; first compound 1 µM): 0.413 | relative viability ([16]; first compound 0.01 µM): 0.566 | relative viability ([16]; first compound 0.03162 µM): 0.607 | relative viability ([16]; first compound 0.1 µM): 0.526 | relative viability ([16]; first compound 0.3162 µM): 0.54 | relative viability ([16]; first compound 1 µM): 0.584 | relative viability ([17]; first compound 0.01 µM): 0.43 | relative viability ([17]; first compound 0.03162 µM): 0.458 | relative viability ([17]; first compound 0.1 µM): 0.431 | relative viability ([17]; first compound 0.3162 µM): 0.378 | relative viability ([17]; first compound 1 µM): 0.449 | relative viability ([18]; first compound 0.01 µM): 0.414 | relative viability ([18]; first compound 0.03162 µM): 0.439 | relative viability ([18]; first compound 0.1 µM): 0.408 | relative viability ([18]; first compound 0.3162 µM): 0.397 | relative viability ([18]; first compound 1 µM): 0.418 | relative viability ([19]; first compound 0.01 µM): 0.558 | relative viability ([19]; first compound 0.03162 µM): 0.833 | relative viability ([19]; first compound 0.1 µM): 0.925 | relative viability ([19]; first compound 0.3162 µM): 0.833 | relative viability ([19]; first compound 1 µM): 0.887 | relative viability ([20]; first compound 0.01 µM): 0.523 | relative viability ([20]; first compound 0.03162 µM): 0.55 | relative viability ([20]; first compound 0.1 µM): 0.457 | relative viability ([20]; first compound 0.3162 µM): 0.498 | relative viability ([20]; first compound 1 µM): 0.529 | relative viability ([21]; first compound 0.01 µM): 0.339 | relative viability ([21]; first compound 0.03162 µM): 0.35 | relative viability ([21]; first compound 0.1 µM): 0.351 | relative viability ([21]; first compound 0.3162 µM): 0.325 | relative viability ([21]; first compound 1 µM): 0.322 | relative viability ([22]; first compound 0.01 µM): 0.73 | relative viability ([22]; first compound 0.03162 µM): 0.837 | relative viability ([22]; first compound 0.1 µM): 0.717 | relative viability ([22]; first compound 0.3162 µM): 0.743 | relative viability ([22]; first compound 1 µM): 0.76
